Data as given in ChEMBL document CHEMBL3046753, “Isocoumarin Derivative as a Novel GABA Receptor Ligand from Neosartorya quadricincta” (J Pestic Sci, 2004).

What was measured:
[1] = Inhibition of GABA receptor-induced currents in Rattus norvegicus (rat) dorsal ganglion neuron
[2] = Displacement of [3H]EBOB from GABA receptor in Rattus norvegicus (rat) membrane after 70 min by liquid scintillation counting; assay type: cell membranes
GABA receptor subunit = target: T1, GABA receptor subunit (Musca domestica, UniProt Q75NA5); experiment: Displacement of [3H]EBOB from GABA receptor in Musca domestica (house fly) head P2 membrane after 70 min by liquid scintillation counting
T1 sequence (Q75NA5 whole entry): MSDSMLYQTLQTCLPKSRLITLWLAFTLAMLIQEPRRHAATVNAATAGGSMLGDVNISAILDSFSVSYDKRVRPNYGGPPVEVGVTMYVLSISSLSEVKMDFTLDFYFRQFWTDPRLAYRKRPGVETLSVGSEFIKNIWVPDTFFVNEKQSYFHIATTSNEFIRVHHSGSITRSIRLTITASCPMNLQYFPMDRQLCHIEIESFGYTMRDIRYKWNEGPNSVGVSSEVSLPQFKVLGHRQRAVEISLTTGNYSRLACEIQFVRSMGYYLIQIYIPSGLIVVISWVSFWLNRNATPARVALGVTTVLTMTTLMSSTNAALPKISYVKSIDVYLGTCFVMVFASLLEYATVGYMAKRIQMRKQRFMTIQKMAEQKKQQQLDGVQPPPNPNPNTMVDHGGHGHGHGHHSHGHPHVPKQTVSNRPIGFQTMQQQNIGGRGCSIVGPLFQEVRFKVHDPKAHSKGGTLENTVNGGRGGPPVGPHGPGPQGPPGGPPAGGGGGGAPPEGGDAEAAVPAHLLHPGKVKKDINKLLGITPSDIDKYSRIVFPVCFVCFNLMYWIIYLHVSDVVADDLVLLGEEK

[3] = target: T2, GABA receptor subunit (Musca domestica) (UniProt Q75NA5); experiment: Displacement of [3H]EBOB from GABA receptor in Musca domestica (house fly) head P2 membrane at 2.2 uM after 70 min by liquid scintillation counting
T2 sequence (whole entry): T1 sequence (Q75NA5 whole entry)

IC50 [1] | IC50 [2] | IC50 (GABA receptor subunit) | inhibition [3] | SMILES
540 nM | 3410 nM | 88 nM |  | CC(C)(C)CCOC(=O)c1ccc(C#CCCC(=O)O)cc1
 | 3410 nM | 88 nM | 65% | COc1cc(O)c2c(c1C)C(C)C(O)(COC(=O)c1ccc(O)c(CC=C(C)C)c1)OC2=O (stereo unspecified) [DIHYDROISOCOUMARIN]
